# Key:
# hIL-6 mRNA = assay: Quantification of hIL-6 mRNA; format: cell-based, human; set-up: key: Active: an active compound is one that causes a ≥20% inhibition in IL-6 mRNA at a concentration less than or equal to 10 μM; conditions: IL-6 mRNA by real-time PCR; differentiated U937 cells, 1 h pretreatment, lipopolysaccharide stimulation 3 h; concentration ≤10 μM
# How it was run: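 U937 cells, differentiated for 3 days, were pretreated with compound for 1 h and then stimulated with E. coli LPS for 3 h at 37 °C. IL-6 mRNA was quantified by one-step qRT-PCR, with Ct normalized to an internal control, and fold induction was expressed relative to control.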
# VCAM-1 mRNA = assay: Quantification of hVCAM mRNA; format: cell-based, human; set-up: key: Active: an active compound is one that causes a ≥20% inhibition in VCAM-1 mRNA at a concentration less than or equal to 10 μM; -1 mRNA at a concentration less than or equal to 10 μM; conditions: VCAM-1 mRNA by real-time PCR; HUVECs, 1 h pretreatment, tumor necrosis factor-α stimulation 24 h; concentration ≤10 μM
# How it was run: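 HUVECs were pretreated 1 h with compound, then stimulated with TNF-α and harvested 24 h later. Isolated mRNA went into one-step qRT-PCR. hVCAM Ct values were normalized to an internal control and expressed as fold induction relative to control.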
SMILES,melting point [°C],Inhibition of IL-6 expression (hIL-6 mRNA),Inhibition of VCAM-1 expression (VCAM-1 mRNA)
"Cc1cc(-c2nc3ccc(CCN4CCCC4)cc3c(=O)[nH]2)cc(C)n1 [2-(2,6-Dimethylpyridin-4-yl)-6-(2-(pyrrolidin-1-yl)ethyl)quinazolin-4(3H)-one]",212.3 to 213.2,Active,Active
"COc1cc(OC)c2c(=O)[nH]c(-c3cc(C)c(OCCN4CCCCCC4)c(C)c3)nc2c1 [2-(4-(2-(Azepan-1-yl)ethoxy)-3,5-dimethylphenyl)-5,7-dimethoxyquinazolin-4(3H)-one]",198 to 199,Active,Active
COCCOc1cc(OC)c2c(=O)[nH]c(-c3ccnc(C)c3)nc2c1 [5-methoxy-7-(2-methoxyethoxy)-2-(2-methylpyridin-4-yl)quinazolin-4(3H)-one],260 to 262,Active,Active
"COc1cc(OC)c2c(=O)[nH]c(-c3cccc(OCCO)c3)nc2c1 [2-(3-(2-Hydroxyethoxy)phenyl)-5,7-dimethoxyquinazolin-4(3H)-one]",244.8 to 246,Active,Active
"COCCOc1cc(OCCOC)c2c(=O)[nH]c(-c3cc(C)nc(C)c3)nc2c1 [2-(2,6-Dimethylpyridin-4-yl)-5,7-bis(2-methoxyethoxy)quinazolin-4(3H)-one]",149.8 to 151.4,Active,Active
"COc1cc(OCCN2CCCC2)c2c(=O)[nH]c(-c3cc(C)nc(C)c3)nc2c1 [2-(2,6-Dimethylpyridin-4-yl)-7-methoxy-5-(2-(pyrrolidin-1-yl)ethoxy)quinazolin-4(3H)-one]",190 to 191,Active,Active
"Cc1cc(-c2nc3cc(OCCOC(C)C)cc(OCCOC(C)C)c3c(=O)[nH]2)cc(C)n1 [2-(2,6-dimethylpyridin-4-yl)-5,7-bis(2-isopropoxyethoxy)quinazolin-4(3H)-one]",124 to 125,Active,Active
"COc1cc(OC)c2c(=O)[nH]c(-c3cc(C)c(OCCN4C(=O)CN(C(C)C)C4=O)c(C)c3)nc2c1 [3-(2-(4-(5,7-Dimethoxy-4-oxo-3,4-dihydroquinazolin-2-yl)-2,6-dimethylphenoxy)ethyl)-1-isopropylimidazolidine-2,4-dione]",219 to 221,Active,Active
"COc1cc(OCCOC(C)C)cc2nc(-c3cc(C)nc(C)c3)[nH]c(=O)c12 [2-(2,6-Dimethylpyridin-4-yl)-7-(2-isopropoxyethoxy)-5-methoxyquinazolin-4(3H)-one]",188 to 189,Active,Active
"COc1cc(OC)c2c(=O)[nH]c(-c3cc(C)c(OCCCCN4CCCC4)c(C)c3)nc2c1 [2-(3,5-Dimethyl-4-(4-(pyrrolidin-1-yl)butoxy)phenyl)-5,7-dimethoxyquinazolin-4(3H)-one]",180 to 181,Active,Active

# Now from value to compound, other results behind:
melting point [°C],SMILES,Inhibition of IL-6 expression (hIL-6 mRNA),Inhibition of VCAM-1 expression (VCAM-1 mRNA)
218 to 219,"COc1cc(OC)c2c(=O)[nH]c(-c3cc(C)c(OCCn4ccnc4)c(C)c3)nc2c1 [2-(4-(2-(1H-Imidazol-1-yl)ethoxy)-3,5-dimethylphenyl)-5,7-dimethoxyquinazolin-4(3H)-one]",Active,Active
178 to 180,"COc1cc(OCCOCc2ccccc2)cc2nc(-c3cc(C)nc(C)c3)[nH]c(=O)c12 [7-(2-(Benzyloxy)ethoxy)-2-(2,6-dimethylpyridin-4-yl)-5-methoxyquinazolin-4(3H)-one]",Active,Active
227 to 229,"COc1cc(OCCN2CCCC2)cc2nc(-c3cc(C)nc(C)c3)[nH]c(=O)c12 [2-(2,6-Dimethylpyridin-4-yl)-5-methoxy-7-(2-(pyrrolidin-1-yl)ethoxy)quinazolin-4(3H)-one]",Active,Inactive
60.4 to 62.3,"COCCOc1cc(OCCN2CCCC2)c2c(=O)[nH]c(-c3cc(C)nc(C)c3)nc2c1 [2-(2,6-Dimethylpyridin-4-yl)-7-(2-methoxyethoxy)-5-(2-(pyrrolidin-1-yl)ethoxy)quinazolin-4(3H)-one]",Active,Active
